Assay results published in patent publication US20190031618A1, “BENZIMIDAZOLE DERIVATIVES USEFUL AS CB-1 INVERSE AGONISTS” (Janssen Pharmaceutica NV, priority 2015, published 2019).

Key:
[1] = biological target: Human CB1R (Cannabinoid receptor 1) (Homo sapiens, UniProt P21554); assay: CB-1 in vitro cAMP (HTRF) assay; assay type: cell-based; conditions: for EC50: HEK cells, cAMP HTRF, 250 nM forskolin, mean where tested more than once, read-out: CB1 HEK_cAMP EC50
Method in brief: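 Intracellular cAMP from HTRF ratio (d2-cAMP vs Eu-cryptate anti-cAMP), converted to nM via per-plate standards, in stable human CB1R HEK-293 cells.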

[2] = biological target: Human CB2R (Cannabinoid receptor 2) (Homo sapiens, UniProt P34972); assay: CB-2 in vitro cAMP (HTRF) assay; assay type: cell-based; conditions: for EC50: HEK cells, cAMP HTRF, 250 nM forskolin, mean where tested more than once, read-out: CB2 HEK_cAMP EC50
Method in brief: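 HEK-293 cells stably expressing receptor, plated overnight at 4E5 cells/mL, tested with 1/3 serial dilutions of compound in HBSS/HEPES/BSA buffer with 0.5 mM IBMX and forskolin (diluted to 1.5 μM in buffer). cAMP measured by competitive HTRF immunoassay (d2-cAMP, cryptate anti-cAMP), signal inversely proportional to cAMP.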

Chain of Human CB1R (Cannabinoid receptor 1) (P21554 whole entry): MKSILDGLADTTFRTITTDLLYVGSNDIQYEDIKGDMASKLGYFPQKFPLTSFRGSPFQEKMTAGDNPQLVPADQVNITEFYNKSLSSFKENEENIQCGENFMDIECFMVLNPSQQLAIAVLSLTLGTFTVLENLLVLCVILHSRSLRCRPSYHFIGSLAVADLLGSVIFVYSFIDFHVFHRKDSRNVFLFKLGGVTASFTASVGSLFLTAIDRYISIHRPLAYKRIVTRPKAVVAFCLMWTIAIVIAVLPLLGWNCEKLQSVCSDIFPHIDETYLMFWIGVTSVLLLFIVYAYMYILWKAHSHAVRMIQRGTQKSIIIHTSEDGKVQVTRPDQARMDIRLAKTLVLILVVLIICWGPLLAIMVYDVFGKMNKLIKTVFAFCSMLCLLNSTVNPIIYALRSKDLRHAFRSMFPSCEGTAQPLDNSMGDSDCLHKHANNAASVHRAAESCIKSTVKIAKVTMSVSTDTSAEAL
Chain of Human CB2R (Cannabinoid receptor 2) (P34972 whole entry): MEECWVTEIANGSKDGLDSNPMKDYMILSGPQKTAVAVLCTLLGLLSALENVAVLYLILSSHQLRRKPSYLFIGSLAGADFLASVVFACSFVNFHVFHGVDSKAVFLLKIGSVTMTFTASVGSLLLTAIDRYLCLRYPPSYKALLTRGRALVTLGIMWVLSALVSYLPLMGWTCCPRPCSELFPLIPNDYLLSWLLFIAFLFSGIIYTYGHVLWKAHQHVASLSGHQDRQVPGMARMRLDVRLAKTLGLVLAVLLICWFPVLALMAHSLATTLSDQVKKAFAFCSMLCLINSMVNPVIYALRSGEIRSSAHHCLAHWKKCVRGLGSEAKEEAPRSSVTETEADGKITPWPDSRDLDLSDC

EC50 [1] | EC50 [2] | IC50 ([1]; first line of the list, HEK-293 cells, cAMP, 250 nM Forskolin) | IC50 ([2]; second line, the sentence announces activity against CB-1 and CB-2, read-out: CB-1 receptor: IC50 (second line of the list)) | SMILES
437 nM | > 10000 nM |  |  | CCOC(=O)c1nc2ccc(C(c3ccc(Cl)cc3)c3nccs3)cc2n1-c1cccc(Cl)c1 (stereo not shown) [Example 429]
14.7 nM | 4700 nM |  |  | CCOC(=O)N1CCC(n2c(CC)nc3ccc(C(c4ccc(Cl)cc4)c4ccc(Cl)cc4)cc32)CC1 [Example 332]
85.4 nM | 869 nM |  |  | COC(=O)c1ccc(OCCn2c(C3CC3)nc3ccc(C(c4ccc(Cl)cc4)c4ccc(Cl)cc4)cc32)cc1 [Example 36]
48.1 nM | > 10000 nM |  |  | O=C(Nc1ccccc1)N1CCC(n2c(C3CC3)nc3ccc(C(c4ccc(Cl)cc4)c4ccc(Cl)cc4)cc32)CC1 [Example 50]
1650 nM | > 10000 nM |  |  | O=C(O)c1ccc(-c2ccc(CCn3c(C4CC4)nc4ccc(C(c5ccc(Cl)cc5)c5ccc(Cl)cc5)cc43)cc2)cc1 [Example 25]
6.2 nM | 4490 nM |  |  | NC(=O)c1cccc(N2CCC(n3c(C4CC4)nc4ccc(C(c5ccc(Cl)cc5)c5ccc(Cl)cc5)cc43)CC2)c1 [Example 162]
6.7 nM | 2060 nM |  |  | C#CCN1CCC(n2c(C3CC3)nc3ccc(C(c4ccc(Cl)cc4)c4ccc(Cl)cc4)cc32)CC1 [Example 76]
7.3 nM | > 10000 nM |  |  | O=S(=O)(N1CCC(n2c(C3COC3)nc3ccc(C(O)(c4ccc(Cl)cc4)c4ccc(Cl)cc4)cc32)CC1)C(F)(F)F [Example 255]
10.8 nM | > 10000 nM |  |  | O=S(=O)(c1ccccc1C(F)(F)F)N1CCC(n2c(C3CC3)nc3ccc(C(c4ccc(Cl)cc4)c4ccc(Cl)cc4)cc32)CC1 [Example 272]
> 10000 nM | > 6600 nM |  |  | FC(F)(F)c1csc(C(c2ccc(Cl)cc2)c2ccc3ncn(Cc4ccc(Cl)cc4)c3c2)n1 (stereo not shown) [Example 462]
598 nM | > 10000 nM |  |  | CCOC(=O)N1CCC(n2c(Cl)nc3ccc(C(c4ccc(Cl)cc4)c4nccs4)cc32)CC1 (stereo not shown) [Example 422]
87.6 nM | 7260 nM |  |  | Oc1ccc(CCn2c(C3CC3)nc3ccc(C(c4ccc(Cl)cc4)c4ccc(Cl)cc4)cc32)cc1 [Example 37]
4800 nM | > 10000 nM |  |  | O=C(c1c[nH]nn1)N1CCC(n2c(C3CC3)nc3ccc(C(c4ccccc4)c4ccccc4)cc32)CC1 [Example 198]
589 nM | 10200 nM |  |  | COc1ccc(S(=O)(=O)N2CCC(n3c(C4CC4)nc4ccc(C(c5ccc(Cl)cc5)c5ccc(Cl)cc5)cc43)CC2)cc1C(=O)O [Example 211]
450 nM | > 42000 nM |  |  | NCCS(=O)(=O)N1CCC(n2c(C3CC3)nc3ccc(C(c4ccc(Cl)cc4)c4ccc(Cl)cc4)cc32)CC1 [Example 46]
> 10000 nM | > 10000 nM |  |  | O=C(O)COc1ccc(-n2c(C3CC3)nc3ccc(C(c4ccc(Cl)cc4)c4ccc(Cl)cc4)cc32)cc1 [Example 165]
91.6 nM | 7780 nM |  |  | O=C(O)c1cccc(N2CCC(n3c(C4CC4)nc4ccc(C(c5ccc(Cl)cc5)c5ccc(Cl)cc5)cc43)CC2)c1 [Example 163]
16.7 nM | 7820 nM |  |  | O=C(O)c1cc(S(=O)(=O)N2CCC(n3c(C4CC4)nc4ccc(C(c5ccc(Cl)cc5)c5ccc(Cl)cc5)cc43)CC2)ccc1F [Example 226]
2.9 nM | 9400 nM |  |  | COc1cc(S(=O)(=O)N2CCC(n3c(C4CC4)nc4ccc(C(c5ccc(Cl)cc5)c5ccc(Cl)cc5)cc43)CC2)ccc1C(N)=O [Example 250]
 |  | 13.5 nM | > 10000 nM | O=S(=O)(c1cccc(NCCOCCOCc2ccccc2)c1)N1CCC(n2c(C3CC3)nc3ccc(C(c4ccc(Cl)cc4)c4ccc(Cl)cc4)cc32)CC1 [compound of formula (II), N-(2-(2-(benzyloxy)ethoxy)ethyl)-3-((4-(6-(bis(4-chlorophenyl)methyl)-2-cyclopropyl-1H-benzo[d]imidazol-1-yl)piperidin-1-yl)sulfonyl)aniline]
535 nM | > 10000 nM |  |  | Clc1ccc(C(c2ccc3nc(-c4ccc(Cl)cc4Cl)n(C4CCCCC4)c3c2)c2nccs2)cc1 (stereo not shown) [Example 444]
621 nM | > 10000 nM |  |  | O=S(=O)(N1CCC(Cn2cnc3ccc(C(c4ccc(Cl)cc4)c4nccs4)cc32)CC1)C(F)(F)F (stereo not shown) [Example 322]
4300 nM | 1700 nM |  |  | O=C(O)c1ccc(CCn2c(C3CC3)nc3ccc(C(c4ccc(Cl)cc4)c4ccc(Cl)cc4)cc32)cc1 [Example 38]
103 nM | 3310 nM |  |  | COC(=O)c1cccc(OCCn2c(C3CC3)nc3ccc(C(c4ccc(Cl)cc4)c4ccc(Cl)cc4)cc32)c1 [Example 26]
6150 nM | > 10000 nM |  |  | Clc1ccc(C(c2ccc3nc(C4CNC4)n(CCc4cccc(Cl)c4)c3c2)c2nccs2)cc1 (stereo not shown) [Example 404]
2.3 nM | > 10000 nM |  |  | O=S(=O)(N1CCC(Cn2c(C3CCC3)nc3ccc(C(c4ccc(Cl)cc4)c4ccc(Cl)cc4)cc32)CC1)C(F)(F)F [Example 288]
22 nM | > 10000 nM |  |  | Cc1nc2ccc(C(c3ccc(Cl)cc3)c3nccs3)cc2n1C1CCN(S(=O)(=O)C(F)(F)F)CC1 (stereo not shown) [Example 386]
49.2 nM | 1500 nM |  |  | CCc1nc2ccc(C(c3ccc(Cl)cc3)c3ccc(Cl)cc3)cc2n1CC(C)c1ccccc1 (single isomer, unassigned) [Example 312]
11 nM | 4960 nM |  |  | O=S(=O)(c1cc(Cl)c(O)c(Cl)c1)N1CCC(n2c(C3CC3)nc3ccc(C(c4ccc(Cl)cc4)c4ccc(Cl)cc4)cc32)CC1 [Example 222]

Second part, the compound before the results:

SMILES | EC50 [1] | EC50 [2] | IC50 ([1]; first line of the list, HEK-293 cells, cAMP, 250 nM Forskolin) | IC50 ([2]; second line, the sentence announces activity against CB-1 and CB-2, read-out: CB-1 receptor: IC50 (second line of the list))
O=S(=O)(N1CCC(n2c(C3CC3)nc3ccc(C(O)(c4ccc(Cl)cc4)c4ccc(Cl)cc4)cc32)CC1)C(F)(F)F [Example 303] | 17.4 nM | > 10000 nM |  | 
O=S(=O)(N1CCC(n2c(C3CCCO3)nc3ccc(C(O)(c4ccc(Cl)cc4)c4ccc(Cl)cc4)cc32)CC1)C(F)(F)F (stereo not shown) [Example 285] | 3.4 nM | > 10000 nM |  | 
NC(=O)CCC(=O)N1CCC(n2c(C3CC3)nc3ccc(C(c4ccc(Cl)cc4)c4ccc(Cl)cc4)cc32)CC1 [Example 273] | 33.6 nM | 9600 nM |  | 
CC(c1cccc(C(=O)O)c1)N1CCC(n2c(C3CC3)nc3ccc(C(c4ccc(Cl)cc4)c4ccc(Cl)cc4)cc32)CC1 (stereo not shown) [Example 87] | 9 nM | 9000 nM |  | 
O=C(O)c1cccc(CN2CCC(n3c(C4CC4)nc4ccc(C(c5ccc(Cl)cc5)c5ccc(Cl)cc5)cc43)CC2)c1F [Example 85] | 17.4 nM | 8100 nM |  | 
CCOC(=O)N1CCC(n2c(C3CNC3)nc3ccc(C(c4ccc(Cl)cc4)c4nccs4)cc32)CC1 (stereo not shown) [Example 414] | 1490 nM | > 10000 nM |  | 
Oc1cccc(CN2CCC(n3c(C4CC4)nc4ccc(C(c5ccc(Cl)cc5)c5ccc(Cl)cc5)cc43)CC2)c1 [Example 90] | 22.4 nM | > 10000 nM |  | 
NC(=O)[C@H]1CC[C@@H](n2c(C3CC3)nc3ccc(C(c4ccc(Cl)cc4)c4ccc(Cl)cc4)cc32)CC1 [Example 136] | 32 nM | 9100 nM |  | 
CCOC(=O)N1CCC(n2c(CC(C)C)nc3ccc(C(c4ccc(Cl)cc4)c4nccs4)cc32)CC1 (stereo not shown) [Example 420] | 231 nM | > 10000 nM |  | 
O=S(=O)(c1ccc(F)cc1)N1CCC(n2c(C3CC3)nc3ccc(C(c4ccc(Cl)cc4)c4ccc(Cl)cc4)cc32)CC1 [Example 282] | 7.3 nM | > 10000 nM |  | 
CC(C)Cc1nc2ccc(C(c3ccc(Cl)cc3)c3nccs3)cc2n1C1CCN(S(=O)(=O)C(F)(F)F)CC1 (stereo not shown) [Example 396] | 221 nM | 91 nM |  | 
CC(C)c1nc2ccc(C(c3ccc(Cl)cc3)c3nccs3)cc2n1-c1cccc(Cl)c1 (stereo not shown) [Example 402] | 192 nM | > 10000 nM |  | 
COc1cc(C(c2ccc(Cl)cc2)c2ccc(Cl)cc2)cc2c1nc(C1CC1)n2C1CCN(S(=O)(=O)C(F)(F)F)CC1 [Example 287] | 2.4 nM | 4590 nM |  | 
O=C(O)c1ccc(N[C@H]2CC[C@H](n3c(C4CC4)nc4ccc(C(c5ccc(Cl)cc5)c5ccc(Cl)cc5)cc43)CC2)cc1 [Example 30] | 40.2 nM | 1620 nM |  | 
Cc1nc2ccc(C(c3ccc(Cl)cc3)c3nccs3)cc2n1Cc1ccc(Cl)cc1 (stereo not shown) [Example 463] | 164 nM | > 7600 nM |  | 
OC(c1ccc(Cl)cc1)(c1ccc2nc(CC(F)(F)F)n(CCc3cccc(Cl)c3)c2c1)c1nccs1 (stereo not shown) [Example 339] | 2410 nM | > 10000 nM |  | 
NC(=O)c1cccc(CN2CCC(n3c(C4CC4)nc4ccc(C(c5ccc(Cl)cc5)c5ccc(Cl)cc5)cc43)CC2)n1 [Example 104] | 12.1 nM | 6000 nM |  | 
CC(c1cc(C(=O)O)ccn1)N1CCC(n2c(C3CC3)nc3ccc(C(c4ccc(Cl)cc4)c4ccc(Cl)cc4)cc32)CC1 (stereo not shown) [Example 59] | 3.8 nM | > 21000 nM |  | 
O=C(O)c1cccc(S(=O)(=O)N[C@H]2CC[C@@H](n3c(C4CC4)nc4ccc(C(c5ccc(Cl)cc5)c5ccc(Cl)cc5)cc43)CC2)c1 [Example 43] | 113 nM | 12100 nM |  | 
O=C(O)c1ccc(S(=O)(=O)N[C@H]2CC[C@@H](n3c(C4CC4)nc4ccc(C(c5ccc(Cl)cc5)c5ccc(Cl)cc5)cc43)CC2)cc1 [Example 42] | 90.8 nM | 8700 nM |  | 
O=C(O)c1ccc(C(=O)N2CCC(n3c(C4CC4)nc4ccc(C(c5ccc(Cl)cc5)c5ccc(Cl)cc5)cc43)CC2)cc1 [Example 246] | 1430 nM | > 10000 nM |  | 
